Measured values as given in PMC7017153, “Assembly of a G-Quadruplex Repair Complex by the FANCJ DNA Helicase and the REV1 Polymerase” (Genes, 2019).
Entries after “also recorded” stand apart in the source; their conditions may differ. Each block holds one molecule with its values, some of them ahead of it. Where no end group is shown, it is not given here. The star is where a group is joined. Biotin = O=C1N[C@H]2[C@H](CS[C@H]2CCCCC(=O)*)N1

Key:
[1] = Circular dichroism (CD) of G4 DNA in KCl; assay type: physicochemical; conditions: 20 mM boric acid pH 7.5, 150 mM KCl, 25 °C, 320-220 nm
Procedure: (§1) CD measurements were collected on a JASCO J-810 spectropolarimeter (JASCO Inc., Easton, MD, USA) equipped with a PTC-423S peltier system. G4 DNA samples were dialyzed into 20 mM Boric Acid pH 7.5, 150 mM KCl (or NaCl). CD spectra were collected from 320 nm to 220 nm at 25 °C. Five traces were obtained for each DNA substrate, and a reference scan of the buffer alone was subtracted from the averaged CD signal.

[2] = Circular dichroism (CD) of G4 DNA in NaCl; assay type: physicochemical; conditions: 150 mM NaCl, 25 °C, 320-220 nm
Procedure: as §1

[3] = tested on: human REV1 CTD (amino acid residues 1157 to 1251); assay: BLI, biotinylated FANCJ PIP peptides with REV1 CTD; assay type: binding; conditions: Buffer H, 25 °C; for BLI binding signal (Δλ), REV1 CTD versus PCNA: 1.3 µM PCNA trimer
Text: (§2) The pEB022 plasmid used to produce full-length human PCNA protein was kindly provided by Dr. M. Todd Washington (University of Iowa). A codon-optimized construct (VB170525-1265 nra) used to express human REV1 CTD (amino acid residues 1157 to 1251) in E. coli was synthesized by VectorBuilder Inc. (Chicago, IL, USA). Plasmids were transformed into NiCo21(DE3) competent cells from New England Biolabs (Ipswich, MA, USA). Single bacteria colonies were selected on LB agar plates that were supplemented with 50 µg/mL of kanamycin (PCNA) or carbenicillin (REV1 CTD) to inoculate starter cultures in LB broth. Overnight growths were diluted 1:50 into 4 × 1L LB (37 °C, 250 rpm). Protein expression was induced by adding IPTG to 1 mM when the optical density at 600 nm reached 0.4 absorbance units. Cells were cultured overnight at 16 °C. They were harvested 16 h post induction by centrifugation (6000 × g at 4 °C) for 60 min, and the pellets were resuspended in 20 mM NaPi (pH 7.5), 300 mM NaCl, 30 mM imidazole, 1 mM DTT, 5% (v/v) glycerol, 1% NP-40, and 1 mM PMSF.
(§3) BLI assays were performed on a BLItz instrument (Pall Fortébio, Fremont, CA, USA). Streptavidin-coated biosensors were purchased from Pall Fortébio (Lot 1906281). Biosensors were hydrated in Buffer H for 10 min, and the baseline optical interference was recorded. A total of 150 nM of biotinylated G4 DNA or FANCJ PIP peptide was loaded onto the sensors over 2 min, after which they were washed with Buffer H. Binding reactions were initiated by placing the biosensors in analyte solutions at the indicated concentrations. After their interactions had reached an equilibrium, the sensors were returned to buffer to monitor dissociation of the complexes. Experiments were repeated in triplicate. BLI binding isotherms were generated by plotting the plateau values of the association phase versus total analyte concentration. These curves were fit to a 1:1 interaction model, as described above. The parameters reported were obtained from the average and 95% confidence interval of the three data sets.
PIP-containing proteins bind directly to PCNA to coordinate DNA replication and repair. However, it is now evident that noncanonical PIP-boxes can serve as hotspots to recruit other proteins, including the REV1 translesion synthesis polymerase and the MLH1 mismatch repair protein [54, 55, 56, 64]. To test if the PIP-like motif in FANCJ functions as a PIP or an REV1-interacting region (RIR), we compared how this peptide bound to PCNA versus REV1 by BLI. Recombinant human PCNA protein and the C-terminal domain (CTD) of human REV1 were purified from E. coli (Figure S3A). Biotinylated FANCJ PIP was immobilized on a streptavidin-coated biosensor and experiments were performed as described above. […] Because Δλ is related to the thickness of the biolayer, this value reports the accumulation of mass on the sensor tip. […] This difference is further magnified as REV1 CTD has a molecular mass of ~12 kDa, while a human PCNA trimer is about seven times its size, at ~86 kDa. Next, we tested the effects of a FANCJ PIP AA peptide on its interactions with REV1 CTD and PCNA. The consecutive consensus aromatic residues (YF) within the potential PIP-motif were replaced with alanine amino acids (AA). […] BLI experiments with PIP and PIP AA were repeated as a function of REV1 CTD and PCNA concentration to measure their corresponding equilibrium constant values.

full-length human PCNA = assay: BLI, biotinylated FANCJ PIP peptides with PCNA; assay type: binding; conditions: Buffer H, 25 °C; for Binding to PCNA: BLI
Text: as §2, §3
PIP-containing proteins bind directly to PCNA to coordinate DNA replication and repair. However, it is now evident that noncanonical PIP-boxes can serve as hotspots to recruit other proteins, including the REV1 translesion synthesis polymerase and the MLH1 mismatch repair protein [54, 55, 56, 64]. To test if the PIP-like motif in FANCJ functions as a PIP or an REV1-interacting region (RIR), we compared how this peptide bound to PCNA versus REV1 by BLI. Recombinant human PCNA protein and the C-terminal domain (CTD) of human REV1 were purified from E. coli (Figure S3A). Biotinylated FANCJ PIP was immobilized on a streptavidin-coated biosensor and experiments were performed as described above. […]

bioFANCJ PIP AA (human) = assay: BLI; 150 nM biotinylated FANCJ PIP or PIP AA peptide loaded on streptavidin biosensors (BLItz); REV1 CTD (1.8 uM) or PCNA trimer (1.3 uM) as analyte, also as a function of analyte concentration; Buffer H (20 mM HEPES pH 7.5, 150 mM KCl, 5 mM TCEP, 5% glycerol), 25 C; plateau values fit to a 1:1 model
[4] = biological target: T1, human REV1 CTD (amino acid residues 1157 to 1251) (human, UniProt Q9UBZ9 1157-1251); assay: as above; conditions: both partners purified
T1 construct: REV1 translesion DNA synthesis polymerase, human, C-terminal domain, residues 1157-1251; codon-optimized construct; also called C-terminal domain (CTD) of human REV1; source: E. coli NiCo21(DE3), purified (Ni2+ IMAC, heparin)
T1 sequence (looked up): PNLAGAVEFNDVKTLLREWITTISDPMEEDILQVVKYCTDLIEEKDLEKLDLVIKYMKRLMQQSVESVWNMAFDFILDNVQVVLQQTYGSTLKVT

[5] = biological target: T2, full-length human PCNA protein (human, UniProt P12004 1-261); assay: as above; conditions: both partners purified
T2 construct: PCNA sliding clamp, human, full length; made from plasmid pEB022; also called PCNA trimer; source: E. coli NiCo21(DE3), purified (Ni2+ IMAC, heparin)

[6] = BLI isotherms, PIP AA versus wild-type PIP
[7] = biotinylated peptide 150 nM, 1.8 µM REV1 CTD

T2 sequence (P12004 whole entry): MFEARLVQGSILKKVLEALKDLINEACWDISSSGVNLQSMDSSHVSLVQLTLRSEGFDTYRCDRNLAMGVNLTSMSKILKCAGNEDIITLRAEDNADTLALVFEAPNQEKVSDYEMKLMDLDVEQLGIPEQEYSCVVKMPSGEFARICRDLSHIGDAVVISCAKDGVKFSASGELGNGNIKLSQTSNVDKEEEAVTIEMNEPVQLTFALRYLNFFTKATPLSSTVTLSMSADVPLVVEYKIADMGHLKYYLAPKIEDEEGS

Molecule: (TTAGGG)4: human telomeric G4 DNA, TTAGGGTTAGGGTTAGGGTTAGGG
G4 conformation by CD (KCl) [1]: folded into a hybrid conformation
G4 conformation by CD (NaCl) [2]: adopted an anti-parallel configuration in NaCl buffer

Molecule: Biotin-SWSSFNSLGQAATGKIP [FANCJ PIP AA, Biotin-…, YF replaced with AA]
Change in affinity for REV1 CTD by PIP AA mutation [3, 6]: small increase in affinity for REV1 CTD
BLI binding signal (Δλ), REV1 CTD versus PCNA [3, 7]: more REV1 CTD bound to the mutant peptide versus PCNA
BLI binding signal, PIP AA versus wild-type PIP, REV1 CTD [3, 7]: larger binding signals compared to the wild-type PIP sequence for REV1 CTD
Change in affinity (binding constant) for PCNA by PIP AA mutation (full-length human PCNA; [6]): binding of PCNA was weakened twofold; also recorded: reduced the binding constant for PCNA by half
Binding to PCNA (full-length human PCNA): still retained residual interactions with PCNA
BLI binding signal, PIP AA versus wild-type PIP, PCNA (full-length human PCNA; biotinylated peptide 150 nM, 1.3 µM PCNA trimer): larger binding signals compared to the wild-type PIP sequence

Further lines, with some results ahead:

Binding to REV1 CTD ([3]; BLI): bound to REV1 CTD
Binding to PCNA (full-length human PCNA): bound to REV1 CTD and to PCNA
Molecule: Biotin-SWSSFNSLGQYFTGKIP [FANCJ PIP, Biotin-…, FANCJ amino acids 1001–1017]
BLI binding signal (Δλ), REV1 CTD versus PCNA [3, 7]: REV1 CTD produced a larger binding signal than PCNA at similar molar concentrations of protein; also recorded: Interactions with REV1 CTD, however, produced a stronger binding signal than PCNA

fold weakening of the equilibrium constant against wild-type FANCJ PIP (bioFANCJ PIP AA (human)): 2 fold
Molecule: full-length human PCNA protein (from UniProt P12004 1-261)

binding result [4]: binds
binding result [5]: binds
B1: bioFANCJ PIP (peptide)
peptide: Biotin-SWSSFNSLGQYFTGKIP
notes: FANCJ helicase, human, PIP-like motif, amino acids 1001-1017; Held on streptavidin biosensors by the N-terminal biotin; also called biotinylated FANCJ PIP; wild-type PIP; source: synthetic peptide (Genscript)
